The record followed here is patent US20220274947A1, “NOVEL HETEROARYL-TRIAZOLE COMPOUNDS AS PESTICIDES” (Bayer Aktiengesellschaft, priority 2019, published 2022).

Molecules are shown by their SMILES.

Holding throughout (assay type): in vivo
Assay [1] relates to Anopheles funestus strain FUMOZ-R. Kind of assay: Anopheles funestus test (ANPHFU surface treatment & contact assay). Particulars: exposure 30 minutes, 24 hours after contact, read-out: efficacy (mortality). In outline: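 Adult FUMOZ-R mosquitoes were exposed 30 min to glazed tiles treated with compound in acetone plus 2000 ppm rapeseed oil methyl ester, after solvent evaporation. Percent mortality was scored 24 h after contact.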

The test system of another assay is Ctenocephalides felis. Kind of assay: Ctenocephalides felis oral test (CTECFE Oral). Conditions: 48 h, read-out: activity (mortality). In outline: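 About 20 unfed adult cat fleas fed through parafilm on cattle blood containing compound (DMSO concentrate diluted in blood to the desired concentration). Blood held at 37 °C, fleas at room temperature. Mortality (%) scored after 2 days.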

Another assay deals with Rhipicephalus microplus. Kind of assay: Rhipicephalus (Boophilus) microplus dip test (BOOPMI Dip). Conditions: 168 h, application rate 100 ppm, engorged adult female ticks, after 7 days, read-out: activity (efficacy: 100% means all eggs are infertile). The method, then:
Rhipicephalus (Boophilus) Microplus—Dip Test (BOOPMI Dip)
Test Animal: cattle ticks (Rhipicephalus microplus) strain parkhurst, SP-resistant Solvent: dimethyl sulfoxide
To produce a suitable preparation of active compound, 10 mg of active compound are dissolved in 0.5 mL solvent, and the concentrate is diluted with water to the desired concentration.
This compound solution is pipetted into tubes. 8-10 engorged, adult, female cattle ticks (Rhipicephalus microplus) are placed in perforated tubes. These tubes are immersed in the aqueous compound solution until the ticks are completely moistened. After the liquid has drained off, the ticks are transferred to a filter paper in a plastic tray and stored in a climate chamber.
After 7 days egg deposition of fertile eggs is monitored. Eggs where fertility is not visible are stored in a climate chamber till hatching after about 42 days. An efficacy of 100% means all eggs are infertile; 0% means all eggs are fertile.

Assay [2] concerns Myzus persicae. Kind of assay: Myzus persicae spray test. Conditions: in Brassica rapa, foliar, 120 h, read-out: activity (mortality), application rate 100 g/ha, spray, Chinese cabbage leaf disks, after 5 days. The gist of the method:
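Compound in acetone/DMF solvent diluted in water with 1000 ppm alkylarylpolyglycol ether emulsifier, sprayed onto Chinese cabbage leaf disks infested with all instars of Myzus persicae. Mortality (%) scored after 5 days.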

Assay [3] concerns Myzus persicae. In words: Myzus persicae oral test. Particulars: 120 h, read-out: activity (mortality). In outline: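 Percent mortality was recorded at day 5, where 0% means no aphids killed. Compound prepared from an acetone concentrate diluted in water and combined with IPL41 medium containing sugar was offered to mixed-stage green peach aphids, which sucked it through a parafilm seal.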

Assay [4] has as its system Musca domestica strain WHO—N. In words: Musca domestica test (MUSCDO surface treatment & contact assay). Particulars: exposure 30 minutes, 24 hours after contact, read-out: efficacy (mortality); for mortality at 4 mg/m2: surface concentration 4 mg/m^2, glazed tile; for mortality at 20 mg/m2: surface concentration 20 mg/m^2, glazed tile. The gist of the method:
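Compound dissolved in acetone (2 mg/ml) with 2000 ppm rapeseed oil methyl ester and pipetted onto glazed tile; after acetone evaporation, adult flies exposed to dried surface for 30 minutes. Mortality (%) scored 24 hours after contact.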

For assay [5], the system named is Aedes aegypti strain MONHEIM. Kind of assay: Aedes aegypti test (AEDSAE surface treatment & contact assay). Conditions: exposure 30 minutes, 24 hours after contact, read-out: efficacy (mortality); for mortality at 4 mg/m2: surface concentration 4 mg/m^2, glazed tile; for mortality at 20 mg/m2: surface concentration 20 mg/m^2, glazed tile. The gist of the method: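 Compound dissolved in acetone (2 mg/ml) with 2000 ppm rapeseed oil methyl ester, pipetted onto glazed tile and dried. Adult mosquitoes exposed on the surface for 30 min; percent mortality scored 24 h after contact.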

The test system of another assay is Rhipicephalus sanguineus. In words: Rhipicephalus sanguineus in-vitro contact test, adult brown dog ticks (RHIPSA Cont). Conditions: 48 h, after 48 hours, read-out: activity (efficacy: 100% means all ticks are dead or moribund); for pest or weed control at 1 µg/cm2, 100 g/ha: application rate 1 μg/cm^2 (=100 g/ha); for pest or weed control at 5 µg/cm2, 500 g/ha: application rate 5 μg/cm^2 (=500 g/ha). In outline:
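Compound in acetone (9 mg/mL stock, diluted to test concentration) is coated onto inner walls of glass tubes by rotation for 2 h at 30 rpm. Efficacy is read after 48 h: ticks are tapped down and held on a 45-50° C plate for at most 5 min, and immotile or uncoordinated ones that fail to climb away count as dead or moribund.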

Regarding `Cc1nc([C@H](C)NC(=O)c2cc(Br)cc(OC(F)(F)F)c2)n(-c2ccc(C#N)cn2)n1` [II-47], the mortality at 20 mg/m2 in assay [1] (surface concentration 20 mg/m^2, glazed tile) lay in the range of 80 to 100%. For the same compound, the mortality at 100 ppm with Ctenocephalides felis is 100%. Moreover, in the assay with Rhipicephalus microplus, the pest or weed control at 100 ppm was found to be 80%. Besides, in the assay with Myzus persicae [2], the mortality at 100 g/ha was determined as 100%. In the assay with Myzus persicae [3], the mortality at 0.8 ppm was 100% and the mortality at 4 ppm was found to be 100%. In assay [4], the mortality at 4 mg/m2 was 80 to 100% and the mortality at 20 mg/m2 fell in the range of 80 to 100%. Also, in assay [5], the mortality at 4 mg/m2 lay in the range of 80 to 100% and the mortality at 20 mg/m2 is 80 to 100%. Also, in the assay with Rhipicephalus sanguineus, the pest or weed control at 1 µg/cm2, 100 g/ha came out at 100% and the pest or weed control at 5 µg/cm2, 500 g/ha was found to be 100%.
For the compound `Cc1nc([C@H](C)NC(=O)c2cc(Cl)cc(Br)c2)n(-c2ccc(C#N)cn2)n1` [II-50], in assay [1] (surface concentration 4 mg/m^2, glazed tile), the mortality at 4 mg/m2 lay within 80 to 100%. Moreover, the mortality at 100 ppm in the assay with Ctenocephalides felis amounted to 100%. Further, the pest or weed control at 100 ppm with Rhipicephalus microplus is 100%. For the same compound, in the assay on Myzus persicae [2], the mortality at 100 g/ha amounted to 100%. In addition, in the assay on Myzus persicae [3], the mortality at 0.8 ppm turned out to be 100% and the mortality at 4 ppm came out at 100%. Moreover, in assay [4], the mortality at 4 mg/m2 lay in the range of 80 to 100% and the mortality at 20 mg/m2 fell in the range of 80 to 100%. In addition, in assay [5], the mortality at 4 mg/m2 was 80 to 100% and the mortality at 20 mg/m2 was in the range of 80 to 100%. In the assay on Rhipicephalus sanguineus, the pest or weed control at 1 µg/cm2, 100 g/ha turned out to be 100% and the pest or weed control at 5 µg/cm2, 500 g/ha amounted to 100%.
